From article PMC5736695, “Lectin activity of the pneumococcal pilin proteins” (Scientific Reports, 2017)
Where two headings read alike, the source gives them in different places.

What was measured:
Format in all cases: binding
[1] = target: RrgA SPEC6B (Streptococcus pneumoniae, UniProt A7KT31); experiment: SPR (Biacore T100); settings: read-out: RrgA SPEC6B; free oligosaccharide; protein immobilised on CM5 chip; glycans 160 nM to 100 µM
Source text: SPR (Biacore T100) on RrgA SPEC6B

[2] = target: T1, RrgA TIGR4 (RrgA T4) (Streptococcus pneumoniae, UniProt A0A0H2UNT6); experiment: SPR (Biacore T100)
T1 construct: gene SP_0462
Source text: SPR (Biacore T100) on RrgA TIGR4 (RrgA T4)

[3] = target: T2, RrgC T4 (Streptococcus pneumoniae, UniProt A0A0H2UNM0); experiment: glycan array, fluorescence; settings: glycan printed on slide via spacer; PBS, 1 mM MgCl2, 1 mM CaCl2; protein pre-complexed with anti-His and labelled secondary antibodies
T2 construct: gene SP_0464
Source text: glycan array, fluorescence on RrgC T4

[4] = target: T3, RrgB T4 (Streptococcus pneumoniae, UniProt A0A0H2UNM7); experiment: glycan array, fluorescence; settings: glycan printed on slide via spacer; PBS, 1 mM MgCl2, 1 mM CaCl2; protein pre-complexed with anti-His and labelled secondary antibodies
T3 construct: gene SP_0463
Source text: glycan array, fluorescence on RrgB T4

[5] = read-out: RrgA TIGR4, free oligosaccharide, protein immobilised on CM5 chip, glycans 160 nM to 100 µM

T2 sequence (A0A0H2UNM0 entry or part of it): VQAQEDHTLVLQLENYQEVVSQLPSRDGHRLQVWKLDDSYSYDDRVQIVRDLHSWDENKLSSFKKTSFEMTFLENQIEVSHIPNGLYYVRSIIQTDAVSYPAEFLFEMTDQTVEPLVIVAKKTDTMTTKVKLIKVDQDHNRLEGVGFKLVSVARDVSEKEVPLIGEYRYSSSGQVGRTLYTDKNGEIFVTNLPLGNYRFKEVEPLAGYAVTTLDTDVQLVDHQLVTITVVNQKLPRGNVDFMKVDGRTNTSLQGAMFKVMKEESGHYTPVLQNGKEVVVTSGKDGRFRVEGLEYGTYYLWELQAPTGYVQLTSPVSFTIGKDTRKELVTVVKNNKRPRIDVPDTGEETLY
Sequence of RrgA SPEC6B (A7KT31 entry or part of it): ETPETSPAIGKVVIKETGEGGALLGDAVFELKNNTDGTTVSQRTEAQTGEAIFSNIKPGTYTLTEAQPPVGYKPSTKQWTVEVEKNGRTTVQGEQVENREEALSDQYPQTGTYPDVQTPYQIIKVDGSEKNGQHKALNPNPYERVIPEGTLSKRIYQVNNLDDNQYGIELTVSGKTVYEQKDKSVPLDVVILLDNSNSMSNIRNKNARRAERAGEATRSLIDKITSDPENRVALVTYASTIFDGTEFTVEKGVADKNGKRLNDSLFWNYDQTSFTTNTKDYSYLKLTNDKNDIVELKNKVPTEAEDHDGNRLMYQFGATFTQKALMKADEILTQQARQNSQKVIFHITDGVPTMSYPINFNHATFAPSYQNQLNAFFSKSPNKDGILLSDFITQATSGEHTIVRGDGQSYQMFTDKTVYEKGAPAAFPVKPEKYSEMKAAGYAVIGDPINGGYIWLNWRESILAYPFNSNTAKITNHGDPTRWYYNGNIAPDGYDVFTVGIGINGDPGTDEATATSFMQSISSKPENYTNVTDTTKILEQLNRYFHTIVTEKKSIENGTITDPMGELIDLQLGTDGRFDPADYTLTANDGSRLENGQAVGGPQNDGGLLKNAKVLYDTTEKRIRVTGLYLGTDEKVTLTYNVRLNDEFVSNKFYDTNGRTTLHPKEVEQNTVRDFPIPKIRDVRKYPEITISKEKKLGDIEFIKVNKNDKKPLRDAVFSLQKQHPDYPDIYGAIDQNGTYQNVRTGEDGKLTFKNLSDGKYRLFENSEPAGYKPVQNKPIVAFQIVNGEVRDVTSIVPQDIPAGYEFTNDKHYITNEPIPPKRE
T1 sequence (A0A0H2UNT6 entry or part of it): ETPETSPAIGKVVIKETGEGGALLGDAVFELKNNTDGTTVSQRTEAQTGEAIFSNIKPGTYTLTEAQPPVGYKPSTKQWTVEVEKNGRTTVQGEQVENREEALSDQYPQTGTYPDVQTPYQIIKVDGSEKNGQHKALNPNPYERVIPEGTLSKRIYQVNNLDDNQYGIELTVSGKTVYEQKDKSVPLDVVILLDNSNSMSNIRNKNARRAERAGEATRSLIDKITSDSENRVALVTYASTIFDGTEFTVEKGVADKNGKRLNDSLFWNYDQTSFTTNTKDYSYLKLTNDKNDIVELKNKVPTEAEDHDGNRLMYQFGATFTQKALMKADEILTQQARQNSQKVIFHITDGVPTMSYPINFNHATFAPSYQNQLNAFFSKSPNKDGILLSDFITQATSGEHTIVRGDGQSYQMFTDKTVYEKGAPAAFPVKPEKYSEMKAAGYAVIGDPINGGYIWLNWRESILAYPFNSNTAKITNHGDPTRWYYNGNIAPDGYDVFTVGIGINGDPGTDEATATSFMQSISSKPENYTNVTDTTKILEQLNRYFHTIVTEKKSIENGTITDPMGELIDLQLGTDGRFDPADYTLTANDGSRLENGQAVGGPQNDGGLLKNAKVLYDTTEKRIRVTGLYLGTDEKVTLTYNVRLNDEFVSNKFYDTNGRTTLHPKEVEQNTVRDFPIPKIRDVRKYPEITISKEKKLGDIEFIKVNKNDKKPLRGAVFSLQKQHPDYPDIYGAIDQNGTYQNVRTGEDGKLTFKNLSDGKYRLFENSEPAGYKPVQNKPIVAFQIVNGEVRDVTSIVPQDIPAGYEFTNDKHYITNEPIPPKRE
T3 sequence (A0A0H2UNM7 entry or part of it): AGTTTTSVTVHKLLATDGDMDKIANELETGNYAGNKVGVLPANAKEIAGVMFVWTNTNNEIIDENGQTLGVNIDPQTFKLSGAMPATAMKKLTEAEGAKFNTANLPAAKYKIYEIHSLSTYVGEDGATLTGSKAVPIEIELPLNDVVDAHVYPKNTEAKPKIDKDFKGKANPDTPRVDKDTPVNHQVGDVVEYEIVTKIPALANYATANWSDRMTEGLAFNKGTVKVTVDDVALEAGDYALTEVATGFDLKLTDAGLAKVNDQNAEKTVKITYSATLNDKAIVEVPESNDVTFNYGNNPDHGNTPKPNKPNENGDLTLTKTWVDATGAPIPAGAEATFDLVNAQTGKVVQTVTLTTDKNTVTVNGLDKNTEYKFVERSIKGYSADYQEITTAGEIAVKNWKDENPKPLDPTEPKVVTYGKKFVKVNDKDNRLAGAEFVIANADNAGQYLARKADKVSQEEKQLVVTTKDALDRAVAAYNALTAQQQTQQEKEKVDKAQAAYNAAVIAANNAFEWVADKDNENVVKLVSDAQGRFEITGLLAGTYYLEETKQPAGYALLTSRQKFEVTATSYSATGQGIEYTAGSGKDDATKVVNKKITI

## CC(=O)N[C@H]1[C@H](O[C@H]2[C@@H](O)[C@@H](CO)O[C@@H](O[C@H]3[C@H](O)[C@@H](O)C(O)O[C@@H]3CO)[C@@H]2O)O[C@H](CO)[C@@H](O)[C@@H]1O[C@@H]1O[C@H](CO)[C@H](O)[C@H](O)[C@H]1O (stereo partly shown) [1G, Lacto-N-tetraose]
[1]
  Kd: 0.869 ± 0.454 µM
[2]; [5]
  Kd: 1.03 ± 0.05 µM

## CC(=O)N[C@H]1[C@@H](O[C@H]2[C@@H](O)[C@@H](CO)OC(O)[C@@H]2O[C@@H]2O[C@@H](C)[C@@H](O)[C@@H](O)[C@@H]2O)O[C@H](CO)[C@H](O)[C@@H]1O (stereo partly shown) [7K, Blood group A tri]
[1]
  Kd: 1.4 ± 0.29 µM
[2]; [5]
  Kd: 0.916 ± 0.0664 µM

## CC(=O)N[C@H]1[C@@H](O[C@H]2[C@@H](O)[C@@H](CO)O[C@@H](O[C@H]3[C@@H](O)[C@@H](CO)OC(O)[C@@H]3NC(C)=O)[C@@H]2O[C@@H]2O[C@@H](C)[C@@H](O)[C@@H](O)[C@@H]2O)O[C@H](CO)[C@H](O)[C@@H]1O (stereo partly shown) [Blood group A type3/4]
[1]
  Kd: 0.644 ± 0.157 µM
[2]; [5]
  Kd: 0.871 ± 0.286 µM

## CC(=O)N[C@H]1C(O)O[C@H](CO)[C@H](O)[C@@H]1O[C@@H]1O[C@H](CO)[C@H](O)[C@H](O)[C@H]1O[C@@H]1O[C@@H](C)[C@@H](O)[C@@H](O)[C@@H]1O (stereo partly shown) [Blood group H type 3/4]
[1]
  Kd: 0.358 ± 0.051 µM
[2]; read-out: RrgA TIGR4, free oligosaccharide, protein immobilised on CM5 chip, glycans 160 nM to 100 µM (value below tested range)
  Kd: 0.0894 ± 0.016 µM

## CC(=O)N[C@H]1C(O)O[C@H](CO)[C@@H](O[C@@H]2O[C@H](CO)[C@H](O)[C@H](O)[C@H]2O)[C@@H]1O[C@@H]1O[C@@H](C)[C@@H](O)[C@@H](O)[C@@H]1O (stereo partly shown) [Lewis X]
[1]
  Kd: 0.363 ± 0.107 µM
[2]
  Kd: 0.434 ± 0.118 µM

## OC[C@H]1O[C@@H](O[C@H]2[C@H](O)[C@@H](O)C(O)O[C@@H]2CO)[C@H](O)[C@@H](O)[C@@H]1O (stereo partly shown) [cellobiose]
[1]
  Kd: 0.583 ± 0.155 µM

## CC(=O)N[C@H]1[C@H](O[C@H]2[C@H](O)[C@@H](NC(C)=O)C(O)O[C@@H]2CO)O[C@H](CO)[C@@H](O)[C@@H]1O (stereo partly shown) [chitobiose]
[1]
  Kd: 0.426 ± 0.144 µM
[2]; [5]
  Kd: 0.409 ± 0.16 µM

## OC[C@H]1O[C@H](O[C@H]2[C@H](O)[C@@H](O)C(O)O[C@@H]2CO)[C@H](O)[C@@H](O)[C@@H]1O (stereo partly shown) [maltobiose]
[1]
  Kd: 0.964 ± 0.226 µM
[2]; [5]
  Kd: 1.16 ± 0.09 µM

## Fucα1-2Galβ1-3(Fucα1-4)GlcNAcβ1-3Galβ1-4Glcβ-sp4 [compound 496]
[3]
  RrgC T4: 1192 ± 322

## Galα1-3Galβ1-4GlcNAcβ-sp3 [compound 222]
[3]
  RrgC T4: 3108 ± 641

## Galβ1-6Galβ-sp4 [compound 100]
[3]
  RrgC T4: 3443.5 ± 523

## Manα1-3Manβ-sp4 [compound 120]
[4]
  RrgB T4: 1332 ± 275
